This note sets out measurements from ChEMBL document CHEMBL1201862, “PubChem BioAssay data set” (2004).

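Assay format: 96-well plates, 48-hour exposure. Abbreviation: GI50, concentration required for 50% inhibition of growth.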 Active and inactive are the calls of the source. Rule as the data show it: active = GI50 up to about 1.1 µM and inactive = higher.

Among the test systems are A498; HCT-116; HCT-15; HL-60; HOP-92; Hs-578T; M14; MDA-N; Malme-3M; NCI/ADR-RES; OVCAR-3; OVCAR-4; SF-268; SF-539; SK-OV-3; SN12C; SNB-75; TK-10; U-251; UACC-257.
What all share (assay): NCI anticancer screen, dose series, 48 h

Regarding `O=[N+]([O-])c1ccc(S(=O)(=O)Cc2ccccc2)c2nonc12`, the GI50 with A498 is > 100 µM (inactive); in the test with HCT-116 it was 17.3 µM (inactive); in the test with HCT-15, 22.3 µM; in the test with HL-60, 18.3 µM (inactive); with HOP-92, 19.9 µM (inactive); in the test with Hs-578T it was 24.3 µM (inactive). The GI50 is 16.4 µM (inactive) with M14; 19 µM (inactive) in the test with MDA-N; 17.9 µM (inactive) with Malme-3M; 27 µM (inactive) in the test with NCI/ADR-RES; 20.8 µM (inactive) with OVCAR-3; 17.3 µM (inactive) in the test on OVCAR-4. The GI50 was 20 µM (inactive) in the test with SF-268; 17.9 µM (inactive) with SF-539; > 100 µM (inactive) with SK-OV-3; 13.9 µM (inactive) in the test with SN12C; 27.6 µM (inactive) in the test on SNB-75; 18.1 µM (inactive) in the test with TK-10. Besides, the GI50 was 18.2 µM (inactive) in the test on U-251 and 16.1 µM (inactive) with UACC-257.
On to `CCCCCCCCCCCC(=O)N(CCCCCCCCC)CC(O)C(O)C(OC1OC(CO)C(O)C(O)C1O)C(O)CO` (stereo not given), for which the GI50 is 23.1 µM (inactive) in the test on A498; 17.7 µM (inactive) in the test on HCT-116; 16.9 µM in the test on HCT-15; 25.6 µM (inactive) in the test on HL-60; 18.6 µM (inactive) in the test with HOP-92; 35.3 µM (inactive) with Hs-578T. Moreover, the GI50 was 19.4 µM (inactive) in the test with M14; 20.4 µM (inactive) with MDA-N; 19.5 µM (inactive) in the test with Malme-3M; 20.1 µM (inactive) with NCI/ADR-RES; 20.2 µM (inactive) in the test with OVCAR-3; 21 µM (inactive) in the test on OVCAR-4. Besides, the GI50 in the test with SF-268 is 19.4 µM (inactive); in the test with SF-539 it was 21.4 µM (inactive); in the test on SK-OV-3, > 10 µM (inactive); in the test with SN12C it was 19.1 µM (inactive); with SNB-75 it was 18.5 µM (inactive); with TK-10, 15.2 µM (inactive). Moreover, the GI50 in the test on U-251 was 20.4 µM (inactive); in the test on UACC-257 it was 16.9 µM (inactive).
On to `C=C1CN=C(Nc2ccc(Cl)cc2)S1`, for which the GI50 in the test with A498 was > 100 µM (inactive); in the test on HCT-116 it was > 100 µM (inactive); in the test on HCT-15, more than 100 µM; with HL-60 it was > 10 µM (inactive); with HOP-92 it was 28.2 µM (inactive); in the test on Hs-578T it was > 100 µM (inactive). The GI50 in the test with M14, in the test on MDA-N, in the test with Malme-3M, with NCI/ADR-RES, with OVCAR-3 and with OVCAR-4 was > 100 µM (inactive) throughout. In addition, the GI50 with SF-268, in the test with SF-539, with SK-OV-3, in the test on SN12C, with SNB-75 and with TK-10 was > 100 µM (inactive) throughout. Moreover, the GI50 with U-251 was 93.3 µM (inactive); in the test on UACC-257, > 100 µM (inactive).
For `O=C(O)C(CO)NC(=O)C1C(C(=O)O)C(c2ccccc2[N+](=O)[O-])C=C(c2ccco2)N1c1ccncc1` (stereo not given), the GI50 was 11.8 µM (inactive) in the test on A498; 1.67 µM (inactive) in the test on HCT-116; 1.95 µM in the test on HCT-15; 2.97 µM (inactive) with HL-60; 12.1 µM (inactive) in the test with HOP-92; 13.5 µM (inactive) with Hs-578T. For the same molecule, the GI50 was 4.32 µM (inactive) in the test with M14; 2.84 µM (inactive) in the test on MDA-N; 13.4 µM (inactive) in the test with Malme-3M; 9.23 µM (inactive) in the test on NCI/ADR-RES; 6.28 µM (inactive) in the test on OVCAR-3; 12.7 µM (inactive) in the test with OVCAR-4. The GI50 with SF-268 was 12.6 µM (inactive); with SF-539 it was 1.84 µM (inactive); with SK-OV-3 it was 15.1 µM (inactive); in the test with SN12C, 4.62 µM (inactive); with SNB-75, 8.97 µM (inactive); in the test with TK-10 it was 2.9 µM (inactive). Further, the GI50 in the test with U-251 was 2.34 µM (inactive); in the test on UACC-257, 3.61 µM (inactive).
For `ClC1=C(Cl)C(Cl)(Cl)SS1`, the GI50 in the test with A498 is > 10 µM (inactive); with HCT-116, > 4.57 µM (inactive); in the test with HCT-15, more than 7.82 µM; in the test on HL-60 it was 2.24 µM (inactive); in the test on HOP-92 it was > 5.57 µM (inactive); with Hs-578T it was > 10 µM (inactive). In addition, the GI50 in the test on M14 is 3.8 µM (inactive); in the test on MDA-N, 9.68 µM (inactive); with Malme-3M, 3.15 µM (inactive); in the test with NCI/ADR-RES it was > 7.21 µM (inactive); in the test with OVCAR-3 it was > 5.56 µM (inactive); in the test with OVCAR-4, > 5.93 µM (inactive). For the same molecule, the GI50 is > 10 µM (inactive) in the test with SF-268; > 10 µM (inactive) in the test with SF-539; > 10 µM (inactive) in the test on SK-OV-3; > 10 µM (inactive) with SN12C; > 10 µM (inactive) with SNB-75; > 5.86 µM (inactive) in the test on TK-10. Further, the GI50 was > 10 µM (inactive) with U-251 and > 5.09 µM (inactive) with UACC-257.
With `O=C1/C(=C/c2ccc(F)cc2)CNC/C1=C\c1ccc(F)cc1`, the GI50 is 2.25 µM (inactive) in the test with A498; 0.27 µM (active) in the test on HCT-116; 0.498 µM in the test on HCT-15; 0.383 µM (active) in the test with HL-60; 3.61 µM (inactive) in the test on HOP-92; 4.6 µM (inactive) in the test with Hs-578T. Further, the GI50 in the test on M14 is 1.99 µM (inactive); with MDA-N, 1.95 µM (inactive); in the test on Malme-3M, 3.28 µM (inactive); in the test with NCI/ADR-RES, 2.95 µM (inactive); in the test with OVCAR-3, 1.65 µM (inactive); with OVCAR-4 it was 2.09 µM (inactive). For the same molecule, the GI50 in the test with SF-268 is 0.818 µM (active); in the test with SF-539, 0.865 µM (active); with SK-OV-3, 6.92 µM (inactive); in the test on SN12C, 2.14 µM (inactive); in the test on SNB-75, 3.75 µM (inactive); with TK-10, 2.21 µM (inactive). Moreover, the GI50 is 0.41 µM (active) in the test on U-251 and 3.76 µM (inactive) with UACC-257.
